Source: patent US20240408071A1, “NOVEL COMBINATION OF SEROTONIN RECEPTOR (5-HTR2B) ANTAGONIST AND AN IMMUNOMODULATOR AND CHEMOTHERAPEUTIC DRUGS FOR INHIBITION OF CANCER” (NATIONAL CENTRE FOR CELL SCIENCE, priority 2021, published 2024)

How the values were obtained:
MC38 colon cancer cells = test: MC38 colon tumor growth (tumor volume) in C57BL/6 mice; format: in vivo
Procedure: Tumor volumes were measured and plotted. (B) MC38 colon cancer cells were injected subcutaneously into the right flank of C57BL/6 mice. After seven days when tumors became palpable, one group was treated with 5-HTR7 antagonist SB-269970 (n=6 mice; 3 mg/kg/day) or left untreated (n=6 mice). Tumor volume was measured and plotted. (C) After seven days of the setting of tumor growth, one group was treated with a serotonin transporter blocker (SSRI) sertraline hydrochloride (n=6 mice; 15 mg/kg/week) or left untreated (n=6 mice). Tumor volume was measured and plotted. (D) C57BL/6 mice were given subcutaneously injected MC38 cells. After seven days of tumor growth, one group of mice was treated with different doses of 5-HTR2B antagonist SB-215505 (n=6). Tumor volume was measured and plotted. (E) C57BL/6 mice were given subcutaneously injected MC38 cells. After seven days of the tumor growth, one group of mice was treated with different doses of 5-HTR2B antagonist SB-215505 (n=6), one group treated with 5-HTR2B agonist BW-723C86 (n=6; 4 mg/kg/day). Tumor volume was measured and plotted. (F) MC38 cells were subcutaneously injected into C57BL/6 mice. After seven days when the tumor became palpable in mice, one group of mice was treated with FDA-approved 5-HTR2B antagonist cariprazine (Carispec; Sun pharma) via oral gavage (n=5 mice; dose 5 mg/kg body weight/day) or left untreated (n=5 mice). Tumor growth was measured and plotted. […] All the statistical analysis was performed using Student's ‘t’ test or two-way ANOVA using Sidak's multiple comparison test. *P<0.05; **P<0.01; ***P<0.00; ****P<0.0001 Error bar represents mean±standard error of means (SEM).

MC38 cells [1] = test: MTT cell viability assay; format: cell-based, mouse; conditions: graded dose; reduced serum media; 48 hours of stimulation
Procedure: FIG. 6 depicts that 5-HTR2B signalling in colon cancer affects cell proliferation and viability: Colon cancer MC38 cells were treated with serotonin (100 μM), 5-HTR2B agonist (BW-723C86; 50 μM), or 5-HTR2B antagonist (SB-215505; 50 μM) for 48 hours, and cell cycle analysis was performed by propidium iodide staining using flow cytometry. MC38 cells were also treated with a graded dose of 5-HTR2B agonist (BW-723C86) or serotonin. MTT assay was performed to measure cell viability. (A) After treatment with 5-HTR2B agonist BW-723C86, serotonin, or 5-HTR2B antagonist SB-215505, the relative cell cycle analysis is shown. (B) Relative cell viability data of MC38 cells following treatment of graded doses of 5-HTR2B agonist BW-723C86 or serotonin are shown. The data shown are representative of one of the three independent experiments. (C) MC38 tumor sections from the control tumor and 5-HTR2B antagonist treated tumor were stained for CD31 and the number of CD31^+ micro-blood vessels/mm^2 of tissue sections was counted and plotted to observe angiogenesis. Error bar represents ±standard error of the mean (SEM).
MC38 cells were cultured at a density of 0.5×10^4 cells/well in 96 well plates (flat bottom) and were allowed to adhere for 24 hours. […] Then, MTT crystals were dissolved with DMSO, and the reading was taken at 590 nm in an ELISA reader (Thermofisher). […]

PD-L1 = PD-L1 expression on MC38 cells in vitro (flow cytometry, mRNA); format: cell-based, mouse; conditions: BW-723C86 50 μM, serotonin 100 μM, RS-127445 50 μM, 72 hours (mRNA 48 hours) (FIG. 13A-E)
Procedure: FIG. 13 depicts 5-HTR2B signaling promotes PD-L1 expression on the MC38 cell line in vitro: (A-B) MC38 cells are treated with 5-HTR2B agonist (BW-723C86-50 μM), serotonin (100 μM), and 5-HTR2B antagonist (RS-127445-50 μM) for 72 hours, and the PD-L1 expression was checked by flow cytometry and the percentage of PD-L1^+ MC38 cells was plotted. (C-D) MFI of PD-L1 from the above experiment were plotted as histogram overlay (C) or as statistical data points (D). (E) Relative PD-L1 mRNA expression in MC38 cells following BW-723C86 and RS-127445 treatment for 48 hours. Here the values are shown as a fold change as compared to control MC38 cells. (F) Serum PD-L1 level was measured by ELISA of naïve C57BL/6J mice, control MC38 tumor-bearing mice, BW-723C86 (5 mg/kg/day) treated MC38 tumor-bearing mice and RS-127445 (5 mg/kg/day) treated MC38 tumor-bearing mice after 14 days of tumor inoculation. All the statistical analysis was performed using either Student's ‘t’ test or two-way ANOVA using Sidak's multiple comparison test. *P<0.05; **P<0.01; […]; ****P<0.0001 Error bar represents mean±standard error of means (SEM).
To understand it, investigations were done on whether 5-HTR2B signaling also affects the surface expression of molecules that alters inflammatory and cytotoxic immune cells. Among different molecules, PD-L1 is of particular interest as it is an immune checkpoint ligand that affects cytotoxic T-cell responses toward cancer. […] (FIG. 13F).

4T1-Luc2 cells = test: 4T1-Luc2 breast cancer model, tumor volume; format: in vivo, BALB/c mice; conditions: SB-215505 vs untreated, from day 7 (FIG. 7G)
Procedure: FIG. 7 depicts that antagonizing the 5-HTR2B in mice inhibits breast and colon tumor growth: (A) MC38 colon cancer cells were injected subcutaneously into the right flank of C57BL/6 mice. […] Tumor volumes were measured and plotted. (B) MC38 colon cancer cells were injected subcutaneously into the right flank of C57BL/6 mice. After seven days when tumors became palpable, one group was treated with 5-HTR7 antagonist SB-269970 (n=6 mice; 3 mg/kg/day) or left untreated (n=6 mice). Tumor volume was measured and plotted. (C) After seven days of the setting of tumor growth, one group was treated with a serotonin transporter blocker (SSRI) sertraline hydrochloride (n=6 mice; 15 mg/kg/week) or left untreated (n=6 mice). Tumor volume was measured and plotted. (D) C57BL/6 mice were given subcutaneously injected MC38 cells. After seven days of tumor growth, one group of mice was treated with different doses of 5-HTR2B antagonist SB-215505 (n=6). Tumor volume was measured and plotted. […] Tumor volume was measured and plotted. […] Tumor growth was measured and plotted. […] Tumour volumes were measured and plotted. […] Tumour volumes were measured and plotted. […]
FIG. 16 depicts the effect of the 5-HTR2B antagonist on the FDA-approved chemotherapy drug treatment: (A) BALB/C mice were inoculated with 4T1-Luc2 cells in the mammary fat pad. […] Tumor volume was measured and plotted. […]

B16F10 cells = test: B16F10 melanoma model, tumor volume; format: in vivo, C57BL/6J mice; conditions: SB-215505 vs untreated, from day 7 (FIG. 7H)
Procedure: FIG. 7 depicts that antagonizing the 5-HTR2B in mice inhibits breast and colon tumor growth: (A) MC38 colon cancer cells were injected subcutaneously into the right flank of C57BL/6 mice. […] Tumor volumes were measured and plotted. (B) MC38 colon cancer cells were injected subcutaneously into the right flank of C57BL/6 mice. After seven days when tumors became palpable, one group was treated with 5-HTR7 antagonist SB-269970 (n=6 mice; 3 mg/kg/day) or left untreated (n=6 mice). Tumor volume was measured and plotted. (C) After seven days of the setting of tumor growth, one group was treated with a serotonin transporter blocker (SSRI) sertraline hydrochloride (n=6 mice; 15 mg/kg/week) or left untreated (n=6 mice). Tumor volume was measured and plotted. (D) C57BL/6 mice were given subcutaneously injected MC38 cells. After seven days of tumor growth, one group of mice was treated with different doses of 5-HTR2B antagonist SB-215505 (n=6). Tumor volume was measured and plotted. (E) C57BL/6 mice were given subcutaneously injected MC38 cells. After seven days of the tumor growth, one group of mice was treated with different doses of 5-HTR2B antagonist SB-215505 (n=6), one group treated with 5-HTR2B agonist BW-723C86 (n=6; 4 mg/kg/day). Tumor volume was measured and plotted. […] Tumor growth was measured and plotted. […] Tumour volumes were measured and plotted. […] Tumour volumes were measured and plotted. […]

MC38 cells [2] = test: MC38 tumor growth in immuno-compromised NRG mice; format: in vivo; conditions: 4 mg/kg/day from day 7; not as much as in wild-type mice (FIG. 8B)
Procedure: FIG. 8 depicts that 5-HTR2B antagonism promotes antigen-specific immune response to the tumor: (A) Experimental protocol for SB-215505 treatment in MC38 tumor-bearing NRG mice. In brief, (B) MC38 cells were injected subcutaneously into NRG mice. After seven days of the tumor growth setting in mice, one group of mice was treated with 5-HTR2B antagonist SB-215505 (n=5 mice) or left untreated (n=5 mice). Tumour volumes were measured and plotted. (C) Experimental protocol for adoptive transfer of SB-215505 pre-treated naïve or MC38 tumor primed immune cells in MC38 tumor-bearing NRG mice. In brief: (D) MC38 cells were injected subcutaneously into NRG mice. Those mice were adoptively transferred with naïve (n=4 mice) or MC38 tumor primed immune cells (n=4 mice) or SB-215505 pre-treated naïve (n=4 mice) or SB-215505 pre-treated MC38 tumor primed immune cells (n=4 mice) from the day of tumor inoculation. After the tumor begins to appear, tumor volumes were measured and plotted. […]
MC38 and MC38-cOVA cells were injected subcutaneously into the right flank of male C57BL/6 or NRG mice (0.5×10^6 cells/mouse in 150 μl PBS). […] Tumor volume was measured using a Vernier caliper on each alternate day or every third day as soon as the tumor appears. The volume of the tumor was measured using the formula V=L×W^2/2, where L=length of the tumor (mm) and W=width of the tumor (mm). […]

[3] = 4 mg/kg/day from day 7 after inoculation, vs untreated (FIG. 7A)

SMILES: Cc1nc2sccn2c(=O)c1CCN1CCC(=C(c2ccc(F)cc2)c2ccc(F)cc2)CC1 [Ritanserin]
- MC38 tumor growth (MC38 colon cancer cells; [3]): controls tumor growth to some extent
- MC38 tumor growth (MC38 colon cancer cells; 4 mg/kg/day from day 7 after inoculation, vs untreated (FIG. 7A), listed as ritanserin): did not prevent tumor growth

SMILES: CN(C)C(=O)N[C@H]1CC[C@H](CCN2CCN(c3cccc(Cl)c3Cl)CC2)CC1 [cariprazine]
- MC38 tumor growth (MC38 colon cancer cells; oral gavage, 5 mg/kg body weight/day (FIG. 7F)): significant reduction in MC38 tumor growth

SMILES: NCCc1c[nH]c2ccc(O)cc12 [serotonin]
- viability of MC38 cells (MC38 cells [1]): enhanced the viability of MC38 cells
- expression of PD-L1 in the colon cancer cells (PD-L1): did not significantly alter the PD-L1 expression

SMILES: Cc1cc2c(cc1Cl)N(C(=O)Nc1cccc3ncccc13)CC2 [SB-215505]
- MC38 tumor growth (MC38 colon cancer cells; [3]): efficiently control the tumor growth
- most efficient dose in reducing MC38 tumor growth (MC38 colon cancer cells; dose-response, doses from 0.5 mg/kg/day to 4 mg/kg/day (FIG. 7D)): 4 mg/kg/day
- tumor burden, mice breast cancer model (4T1-Luc2 cells): reduced tumor burden
- tumor burden, mice melanoma model (B16F10 cells): reduced tumor burden
- MC38 tumor growth in NRG mice (MC38 cells [2]): suppressed to some extent
